Values after ≈ are worked out from the molar mass of the structure shown. “Also recorded” adds a separate entry of the source. Where two headings read alike, the source gives them in different places.
Tests used:
[1] = system: Escherichia coli; test: Anti-Escherichia coli activity test (paper sheet / dilution multiple method); assay type: cell-based
Protocol: The samples are preliminarily tested and compared with the positive control, namely the rifampicin under the situation that each sample is 100 μg/tablet and the rifampicin taken as a standard product is 1 μg/tablet.

[2] = system: Artemia larvae; test: Artemia larva lethal test; assay type: in vivo; conditions: for LC50: Artemia larvae, 24 h at room temperature, from corrected mortality; for LC50 value: against Artemia larvae; for lethal Artemia activity (in words): in vivo
Protocol: (§1) Hatching of Artemia larvae: placing 100 mg of Artemia eggs in a 500 mL beaker, adding 400 mL of artificial sea water, inflating air slowly by using a small inflator pump, hatching at room temperature for 24 h, removing egg shells and the unhatched eggs, and continuously culturing the Artemia larvae for 24 h for later use.
(§2) The biological lethal method of the Artemia larvae is as follows: taking a 96-well cell culture plate according to a Solis improvement method, and adding 2004, of artificial sea water solution containing 10-15 Artemia in each well to prepare a test culture plate. […] A blank control group and sample groups of each concentration are respectively provided with three parallel holes, 54, of the sample solvent (DMSO) is added for the blank control group, 54, of the sample solutions of different concentrations are respectively added into the sample groups, and the final concentrations are 500 μg/mL, 50 μg/mL and 5 μg/mL respectively. The culture is performed at room temperature for 24 h, and then the number of dead individuals of the Artemia larvae is detected and counted under a binocular dissecting microscope. The biological lethal activity of the Artemia larvae is represented by corrected mortality and is calculated according to the following formula: Corrected mortality=(survival rate of control group−survival rate of treated group)/survival rate of control group×100%
(§3) The three concentrations and the corresponding corrected mortalities are input into a computer for respectively calculating LC50 and 95% confidence interval thereof.

[3] = system: Vibrio anguillarum; conditions: cited from earlier work; for MIC: against Vibrio anguillarum, values of compounds 2, 3 and 4 referred to Fdhila F et al., Journal of Natural Products, 2003, 66 (10): 1299-1301; for activity against Vibrio anguillarum (in words): compounds 2-4, based on Fdhila F et al.
[4] = system: Vibrio anguillarum; test: Anti-Vibrio anguillarum activity test (paper sheet / dilution multiple method); assay type: cell-based
Protocol: The samples are preliminarily tested under the situation that each sample is 100 μg/tablet, and the samples are found to have better activities. Then a dilution multiple method is adopted for testing the MIC values (the diameters of the paper sheets are 6 mm, 6-10 mm means weak activity, 10-15 mm means medium activity and 15 mm or more means strong activity).

[5] = Artemia larva lethal test; assay type: in vivo; conditions: Artemia (brine shrimp) larvae, in vivo; against Artemia larvae
Protocol: as §1, §2, §3

SMILES	inhibitory activity against Escherichia coli (in words) [1]	LC50 [2] [µg/mL]	LC50 value [2] [µg/mL]	lethal Artemia activity (in words) [2]	MIC [3] [µg/mL]	activity against Vibrio anguillarum (in words) [3]	MIC ([4]; against Vibrio anguillarum, LB medium, 37° C., observed after 24 h) [µg/mL]	inhibitory activity against Vibrio anguillarum (in words) ([4]; compound 1)	MIC ([1]; against Escherichia coli, LB medium, 37° C., observed after 24 h, read-out: MIC) [µg/mL]	MIC ([1]; anti-Escherichia coli activity, read-out: MIC (minimal inhibitory concentration) value) [µg/mL]	LC50 at 24 h [5] [µg/mL]
CC[C@@H](C)[C@H]1NC(=O)[C@H]2CCCN2C1=O [compound 2, Cyclo(D)-Pro-(D)-Ile]	weaker	55.67 (≈ 265 µM)	55.67 (≈ 265 µM)	better lethal Artemia activity	0.05 (≈ 0.238 µM)	better inhibitory activity; also recorded: great bactericidal activity	–	–	–	–	–
O=C1N[C@H](Cc2ccccc2)C(=O)N2C[C@@H](O)C[C@H]12 (relative stereo) [compound 4, Cyclo(D)-trans-4-OH-Pro-(D)-Phe]	weaker	13.45 (≈ 51.7 µM)	13.45 (≈ 51.7 µM)	better lethal Artemia activity	0.07 (≈ 0.269 µM)	better inhibitory activity; also recorded: great bactericidal activity	–	–	–	–	–
CCCCCC/C=C/CCC1C=CCC(=O)O1 (stereo not shown) [compound 1]	better inhibitory activity	–	–	better lethal Artemia activity; also recorded: very good	–	–	> 100	weaker	1.58 (≈ 6.68 µM)	1.58 (≈ 6.68 µM)	3.25 (≈ 13.8 µM)
CC(C)C[C@H]1NC(=O)[C@H]2CCCN2C1=O [compound 3, Cyclo(D)-Pro-(D)-Leu]	weaker	87.63 (≈ 417 µM)	87.63 (≈ 417 µM)	better lethal Artemia activity	0.04 (≈ 0.19 µM)	better inhibitory activity; also recorded: great bactericidal activity	–	–	–	–	–
